According to patent US8198273B2, “Compounds and methods for kinase modulation, and indications therefor” (Plexxikon Inc., priority 2009, dated 2012):

Tests used:
CYP2D6 = CYP2D6 (Homo sapiens, UniProt P10635); assay: CYP2D6 inhibition (fluorescent substrate); format: in vitro ADME; conditions: CYP2D6, AMMC substrate; read-out: Cyp IC50 2D6
Description: (§1) CYP (Cytochrome P450) enzymes are the major drug metabolizing enzymes present in the liver. The inhibition of CYP enzyme activity (IC50) for each of CYP1A2, CYP2C19, CYP2C9, CYP2D6, CYP3A4(BFC) and CYP3A4(BQ) is determined for compounds, where inhibition of metabolism of a known substrate leads to a decrease in the fluorescence of the metabolized product. The fluorescence of the product is monitored as a function of compound concentration.
(§2) Compounds are dissolved in dimethyl sulfoxide to a concentration of 100 mM. These are diluted 1 μL into 82 μL of acetonitrile. […] These are then serially diluted 1:1 (160 μL to 160 μL co-factor mix) for a total of 10 points. A 10 μL aliquot of this final mixture is dispensed into 384 well assay plates and incubated for 10 minutes at 37° C. […] Assay plates are incubated at 37° C. […] The signal versus compound concentration is used to determine the IC50. The enzymes and substrates for this assay are obtained from BD Biosciences.

B-Raf V600E = B-Raf V600E (Homo sapiens, UniProt P15056, V600E); assay: B-Raf V600E biochemical kinase inhibition (AlphaScreen, biotin-MEK1 substrate); conditions: 100 μM ATP
Description: (§3) Compounds to be tested are diluted in dimethyl sulfoxide to a concentration of 0.1 mM. These are serially diluted 15 μL into 30 μL of dimethyl sulfoxide seven times in 96 well plates for a total of 8 dilution points, and for each dilution point 1 μL is added to a well of an assay plate. […] The reaction is started with addition of 10 μL of 200 μM ATP (i.e. final 100 μM ATP). […] The plates are incubated for 3 hours at room temperature and read on Envision reader (Perkin Elmer). […] The signal vs. compound concentration is used to determine the IC50.

CYP2C9 = CYP2C9 (Homo sapiens, UniProt P11712); assay: CYP2C9 inhibition (fluorescent substrate); format: in vitro ADME; conditions: CYP2C9, MFC substrate; read-out: Cyp IC50 2C9
Description: as §1, §2

CYP1A2 = molecular target: T1, CYP1A2 (Homo sapiens, UniProt P05177); assay: CYP1A2 inhibition (fluorescent substrate); format: in vitro ADME; conditions: CYP1A2, CEC substrate; read-out: Cyp IC50 1A2
T1 sequence (P05177 1-516): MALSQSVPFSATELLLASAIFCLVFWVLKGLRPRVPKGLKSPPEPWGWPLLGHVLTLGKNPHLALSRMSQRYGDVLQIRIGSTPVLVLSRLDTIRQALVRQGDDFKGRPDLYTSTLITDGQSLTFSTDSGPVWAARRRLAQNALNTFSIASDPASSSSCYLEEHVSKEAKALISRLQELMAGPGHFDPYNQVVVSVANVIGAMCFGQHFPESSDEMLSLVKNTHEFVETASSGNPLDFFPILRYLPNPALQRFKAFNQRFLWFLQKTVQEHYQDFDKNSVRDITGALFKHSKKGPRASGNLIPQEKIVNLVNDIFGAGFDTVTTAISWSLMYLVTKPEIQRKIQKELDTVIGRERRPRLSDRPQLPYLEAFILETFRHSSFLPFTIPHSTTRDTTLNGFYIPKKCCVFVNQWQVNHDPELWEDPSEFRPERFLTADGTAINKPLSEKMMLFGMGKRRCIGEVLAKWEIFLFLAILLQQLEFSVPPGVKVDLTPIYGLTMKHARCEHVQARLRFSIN
Description: as §1, §2

CYP3A4(BFC) = CYP3A4(BFC) (Homo sapiens, UniProt P08684); assay: CYP3A4(BFC) inhibition (fluorescent substrate); format: in vitro ADME; conditions: read-out: Cyp IC50 3A4(BFC)
Description: as §2, with “CYP (Cytochrome P450) enzymes are the major drug metabolizing enzymes present in the liver. The inhibition of CYP enzyme activity (IC50) for each of CYP1A2, CYP2C19, CYP2C9, CYP2D6, CYP3A4(BFC) and CYP3A4(BQ) is determined for compounds, where inhibition of metabolism of a known substrate leads to a decrease in the fluorescence of the metabolized product. The fluorescence of the product is monitored as a function of compound concentration. Compounds” for “Compounds”

CYP3A4(BQ) = CYP3A4(BQ) (Homo sapiens, UniProt P08684); assay: CYP3A4(BQ) inhibition (fluorescent substrate); format: in vitro ADME; conditions: read-out: Cyp IC50 3A4(BQ)
Description: as §2, with “CYP (Cytochrome P450) enzymes are the major drug metabolizing enzymes present in the liver. The inhibition of CYP enzyme activity (IC50) for each of CYP1A2, CYP2C19, CYP2C9, CYP2D6, CYP3A4(BFC) and CYP3A4(BQ) is determined for compounds, where inhibition of metabolism of a known substrate leads to a decrease in the fluorescence of the metabolized product. The fluorescence of the product is monitored as a function of compound concentration. Compounds” for “Compounds”

CYP2C19 = CYP2C19 (Homo sapiens, UniProt P33261); assay: CYP2C19 inhibition (fluorescent substrate); format: in vitro ADME; conditions: CYP2C19, CEC substrate; read-out: Cyp IC50 2C19
Description: as §1, §2

c-Raf-1 = c-Raf-1 (Homo sapiens, UniProt P04049); assay: c-Raf-1 biochemical kinase inhibition (AlphaScreen, biotin-MEK1 substrate); conditions: 100 μM ATP
Description: as §3

B-Raf = B-Raf (Homo sapiens, UniProt P15056); assay: B-Raf biochemical kinase inhibition (AlphaScreen, biotin-MEK1 substrate); conditions: 100 μM ATP
Description: as §3

[1] = tested on: A375 melanoma cells (B-Raf V600E); assay: A375 cell growth inhibition (ATPlite); format: cell-based; conditions: Homo sapiens, A-375, 72 h; A375, 3 days incubation
Description: (§4) Compounds are assessed in a variety of cell based assays. For example human cell lines with B-Raf V600E mutation (A375 melanoma, SKMEL3 melanoma, and COL0205 colon adenocarcinoma), as well as tumorigenic cell lines with wild-type B-RAF (SW620 colon adenocarcinoma) or with Ras mutations (SKMEL2 melanoma and IPC298 melanoma). Similar assays may be used to assess additional tumorigenic cell lines with Ras mutations, including, but not limited to, M202, M207, M243, M244, M296, S117, HCT116, HCT15, DLD1, MiaPaCa, A549, NCI-H23, NCI-H460, HOP62, MDA-MB231, Hs-578T, HL60, MOLT-4, and CCRF-CEM.
(§5) On day 1, cells are counted, then centrifuged in a conical tube for 5 minutes at 1000 rpm. The supernatant is removed and cells are re-suspended as follows: • SW620 (ATCC catalog #CCL-27): resuspend in Leibovitz's L-15 medium, 2 mM L-glutamine, 10% fetal bovine serum to 6×10^4 cells/mL. • A375 (ATCC catalog #CRL-1619): resuspend in Dulbecco's modified Eagle's medium, 4 mM L-glutamine, 4.5 g/L D-glucose, 10% fetal bovine serum to 6×10^4 cells/mL. • COL0205 (ATCC catalog #CCL-222): resuspend in RPMI 1640, 2 mM L-glutamine, 1.5 g/L sodium bicarbonate, 4.5 g/L D-glucose, 10 mM HEPES, 1.0 mM sodium pyruvate, 10% fetal bovine serum to 6×10^4 cells/mL. • SKMEL2 (ATCC catalog #HTB-68): resuspend in Minimum Eagle essential medium, 2 mM L-glutamine, 1.5 g/L sodium bicarbonate, 0.1 mM non-essential amino acids, 1.0 mM sodium pyruvate, 10% fetal bovine serum to 6×10^4 cells/mL. • SKMEL3 (ATCC catalog #HTB-69): resuspend in McCoy's 5A medium, 1.5 mM L-glutamine, 15% fetal bovine serum to 6×10^4 cells/mL. • IPC298 (DSMZ catalog #ACC 251): resuspend in RPMI 1640, 2 mM L-glutamine, 10% fetal bovine serum to 6×10^4 cells/mL.
(§6) The cells are plated, 50 μL in each well of a 96-well dish (Corning 3610) and incubated at 37° C. in 5% CO2 overnight, cells plated to a final concentration of cells as follows:
(§7) On day 2, compound at a maximum concentration of 5 mM is serially diluted 1:3 for a total of 8 point titration with DMSO as a control. A 1 μL aliquot of each dilution point and control is added to 249 μL growth media and 50 μL is added to a well containing cells, providing 10 μM compound at the maximum concentration point. The cells are incubated for 3 days at 37° C. in 5% CO2.
(§8) On day 5, ATPlite 1 step Luminescence Assay System (Perkin Elmer #6016739) is brought to room temperature along with the cell cultures. ATPlite is added 25 μL to each well, shake for 2 minutes, and the cells are incubated at room temperature for 10 minutes, then luminescence is read on Safire reader. The measured luminescence correlates directly with cell number, such that the reading as a function of compound concentration is used to determine the IC50 value.
(§9) It is understood that the results of these assays may vary as assay conditions are varied. Inhibition levels determined under the conditions described herein represent a relative activity for the compounds tested under the specific conditions employed. The cell based assays are likely to show variability due to the complexity of the system and the sensitivity thereof to any changes in the assay conditions. […] Results for compounds that are tested and show substantially no inhibition below the highest tested concentration are represented as “-” in the tables below. In some instances, the compounds were not tested in all of the assays, or assay results were not valid, as indicated by NA in the tables below.

[2] = tested on: SKMEL2 melanoma cells (Ras mutation); assay: SKMEL2 cell growth inhibition (ATPlite); format: cell-based; conditions: Homo sapiens, SK-MEL-2, 72 h; SKMEL2, 3 days incubation
Description: as §4, §5, §6
SKMEL2: 2,000 cells per well.
as §7, §8, §9

[3] = tested on: SW620 colon adenocarcinoma cells (wild-type B-RAF); assay: SW620 cell growth inhibition (ATPlite); format: cell-based; conditions: Homo sapiens, SW-620, 72 h; SW620, 3 days incubation
Description: as §4, §5, §6, §7, §8, §9

[4] = tested on: COLO205 colon adenocarcinoma cells (B-Raf V600E); assay: COLO205 cell growth inhibition (ATPlite); format: cell-based; conditions: Homo sapiens, COLO 205, 72 h; COLO205, 3 days incubation
Description: as §4, §5, §6, §7, §8, §9

[5] = Relative solubility by turbidity in aqueous buffers of varying pH; format: physicochemical
Description: As an indication of relative solubility, the turbidity of compounds in aqueous solutions is assessed. To assess possible compound properties in different physiological compartments, such as stomach, intestine, and blood, a series of aqueous buffers with varying pH is used. Thus each compound is diluted into four different physiologically relevant buffers and solution turbidity is measured by spectrophotometry.
Compounds are dissolved at a concentration of 25 mM in dimethyl sulfoxide, then serially diluted 1:1 into a 96 well plate, diluting 10 times in pure dimethyl sulfoxide, with the final well of each row a dimethyl sulfoxide blank. In an assay plate, 99 μL of appropriate buffer is added to each well, and 1 μL of each sample dilution is added to the buffer, achieving a range of final total concentrations in aqueous solutions having different pH. The buffers used are Simulated Gastric Fluid (SGF-pH 1.5) 0.5M NaCl, pH 1.5; Simulated Intestinal fluid (SIF-pH 4.5 and pH 6.8) 0.05M NaH2PO4, pH 4.5 and 6.8; and Hepes Buffer (HEPES-pH 7.4) 10 mM HEPES, 150 mM NaCl, pH 7.4. Control compounds pyrene, estriol and propranolol HCl are also assessed. Plates are spun and then mixed for 1 minute, and the absorbance is read using a Tecan Safire II to read wavelengths in the visible range (490, 535, and 650 nm) at four locations per well, reflecting the degree of turbidity present. The average optical density for each wavelength in each well is graphed vs. compound concentration, and the concentration at which the curve crosses a threshold O.D. of 0.01 for each wavelength is reported as the endpoint turbidity assay result. The average of the three wavelengths is used to compare turbidity of compounds. Compounds are considered to have low solubility if the threshold concentration is <31.3 04, moderate solubility if the threshold concentration is 31.3 μM to 250 μM, and high solubility if the threshold concentration is >250 μM.

Chain of B-Raf (P15056 whole entry): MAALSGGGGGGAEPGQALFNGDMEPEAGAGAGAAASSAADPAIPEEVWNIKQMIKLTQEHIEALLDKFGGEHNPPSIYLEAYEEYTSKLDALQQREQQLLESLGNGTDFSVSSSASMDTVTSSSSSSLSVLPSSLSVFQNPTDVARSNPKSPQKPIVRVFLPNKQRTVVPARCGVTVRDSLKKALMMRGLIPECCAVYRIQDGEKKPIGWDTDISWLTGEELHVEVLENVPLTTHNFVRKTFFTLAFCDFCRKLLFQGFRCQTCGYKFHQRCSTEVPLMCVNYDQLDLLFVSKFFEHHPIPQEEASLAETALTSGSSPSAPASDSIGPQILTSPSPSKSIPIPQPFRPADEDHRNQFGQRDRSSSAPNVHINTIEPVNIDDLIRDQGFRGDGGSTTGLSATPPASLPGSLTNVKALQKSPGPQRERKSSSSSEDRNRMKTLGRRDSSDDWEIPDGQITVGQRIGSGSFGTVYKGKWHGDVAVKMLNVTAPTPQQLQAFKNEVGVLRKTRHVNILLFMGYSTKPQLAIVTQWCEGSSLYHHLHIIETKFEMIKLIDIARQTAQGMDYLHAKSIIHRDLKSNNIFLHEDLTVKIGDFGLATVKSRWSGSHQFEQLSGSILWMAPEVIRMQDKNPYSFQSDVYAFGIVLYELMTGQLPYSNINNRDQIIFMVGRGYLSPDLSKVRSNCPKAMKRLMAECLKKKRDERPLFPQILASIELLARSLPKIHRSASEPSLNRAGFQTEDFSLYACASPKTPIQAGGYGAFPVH
Chain of B-Raf V600E (P15056 whole entry V600E): as the sequence (P15056 whole entry) above, with V600E counted along it
Chain of CYP2D6 (P10635 whole entry): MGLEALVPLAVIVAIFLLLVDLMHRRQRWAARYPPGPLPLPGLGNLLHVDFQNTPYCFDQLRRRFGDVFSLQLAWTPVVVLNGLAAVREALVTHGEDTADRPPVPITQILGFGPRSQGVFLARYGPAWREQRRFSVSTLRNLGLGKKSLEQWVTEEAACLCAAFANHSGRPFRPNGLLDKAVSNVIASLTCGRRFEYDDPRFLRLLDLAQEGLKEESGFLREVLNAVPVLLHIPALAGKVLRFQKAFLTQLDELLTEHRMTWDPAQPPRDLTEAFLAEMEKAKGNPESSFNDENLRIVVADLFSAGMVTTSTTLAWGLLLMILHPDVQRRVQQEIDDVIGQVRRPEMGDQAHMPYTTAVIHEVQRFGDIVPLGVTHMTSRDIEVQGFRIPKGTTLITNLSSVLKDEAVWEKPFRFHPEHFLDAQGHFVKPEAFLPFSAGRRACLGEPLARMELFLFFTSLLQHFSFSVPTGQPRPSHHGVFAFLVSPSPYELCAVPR
Chain of CYP2C9 (P11712 whole entry): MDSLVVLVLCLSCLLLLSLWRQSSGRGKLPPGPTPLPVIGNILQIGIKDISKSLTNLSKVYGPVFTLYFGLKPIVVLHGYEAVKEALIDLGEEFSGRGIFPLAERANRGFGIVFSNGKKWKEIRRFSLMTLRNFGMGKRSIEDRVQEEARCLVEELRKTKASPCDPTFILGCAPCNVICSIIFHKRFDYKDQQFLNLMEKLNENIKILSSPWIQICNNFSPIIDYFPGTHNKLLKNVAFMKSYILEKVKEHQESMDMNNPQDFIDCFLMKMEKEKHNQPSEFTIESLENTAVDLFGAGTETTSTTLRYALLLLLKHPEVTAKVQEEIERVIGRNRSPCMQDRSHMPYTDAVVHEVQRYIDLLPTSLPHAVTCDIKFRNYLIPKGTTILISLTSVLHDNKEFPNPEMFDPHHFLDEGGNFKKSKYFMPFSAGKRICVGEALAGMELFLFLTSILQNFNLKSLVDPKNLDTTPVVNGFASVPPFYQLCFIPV
Chain of c-Raf-1 (P04049 whole entry): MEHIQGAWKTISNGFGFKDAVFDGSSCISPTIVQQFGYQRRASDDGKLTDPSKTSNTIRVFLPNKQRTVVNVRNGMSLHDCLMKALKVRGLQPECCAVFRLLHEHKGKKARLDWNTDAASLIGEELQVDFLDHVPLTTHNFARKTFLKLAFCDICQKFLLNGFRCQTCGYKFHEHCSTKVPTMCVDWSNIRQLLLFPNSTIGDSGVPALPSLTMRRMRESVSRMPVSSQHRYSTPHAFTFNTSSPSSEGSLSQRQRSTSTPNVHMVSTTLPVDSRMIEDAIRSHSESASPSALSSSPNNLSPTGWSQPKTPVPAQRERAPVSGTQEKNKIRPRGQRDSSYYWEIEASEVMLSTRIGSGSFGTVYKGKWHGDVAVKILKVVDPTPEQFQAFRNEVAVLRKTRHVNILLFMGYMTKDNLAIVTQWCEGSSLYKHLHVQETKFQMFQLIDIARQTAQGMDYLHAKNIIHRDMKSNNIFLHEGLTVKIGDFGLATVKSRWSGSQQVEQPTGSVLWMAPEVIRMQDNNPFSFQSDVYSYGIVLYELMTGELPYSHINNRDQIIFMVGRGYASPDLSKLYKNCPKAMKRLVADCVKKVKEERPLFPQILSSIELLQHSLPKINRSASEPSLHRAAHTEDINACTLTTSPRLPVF
Chain of CYP2C19 (P33261 whole entry): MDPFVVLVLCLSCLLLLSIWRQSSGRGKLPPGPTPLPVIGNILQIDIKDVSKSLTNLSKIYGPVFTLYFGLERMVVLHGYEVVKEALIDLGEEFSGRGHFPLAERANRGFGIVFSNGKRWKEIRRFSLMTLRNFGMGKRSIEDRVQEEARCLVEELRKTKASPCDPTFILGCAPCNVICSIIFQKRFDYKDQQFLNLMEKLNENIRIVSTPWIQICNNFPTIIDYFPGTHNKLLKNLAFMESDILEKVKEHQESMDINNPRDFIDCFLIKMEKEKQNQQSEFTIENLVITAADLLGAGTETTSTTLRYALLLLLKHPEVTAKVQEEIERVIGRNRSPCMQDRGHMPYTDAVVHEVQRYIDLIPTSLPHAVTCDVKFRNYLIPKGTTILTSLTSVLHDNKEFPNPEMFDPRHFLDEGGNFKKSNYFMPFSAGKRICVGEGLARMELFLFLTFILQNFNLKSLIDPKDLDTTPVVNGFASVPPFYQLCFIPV
Chain of CYP3A4(BFC) (P08684 whole entry): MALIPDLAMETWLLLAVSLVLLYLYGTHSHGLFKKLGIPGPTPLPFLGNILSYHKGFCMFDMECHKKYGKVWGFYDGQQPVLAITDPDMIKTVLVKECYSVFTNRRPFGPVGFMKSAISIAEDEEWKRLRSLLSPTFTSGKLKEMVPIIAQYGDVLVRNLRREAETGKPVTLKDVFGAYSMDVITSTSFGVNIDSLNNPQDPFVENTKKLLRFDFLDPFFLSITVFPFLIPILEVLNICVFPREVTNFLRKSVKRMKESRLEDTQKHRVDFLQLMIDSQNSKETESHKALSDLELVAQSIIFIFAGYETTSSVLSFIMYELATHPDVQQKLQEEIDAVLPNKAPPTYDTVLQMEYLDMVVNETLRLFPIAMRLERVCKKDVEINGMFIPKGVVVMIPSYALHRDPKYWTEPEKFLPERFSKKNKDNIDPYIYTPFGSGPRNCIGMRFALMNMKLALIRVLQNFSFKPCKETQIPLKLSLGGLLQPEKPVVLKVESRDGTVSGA
Chain of CYP3A4(BQ) (P08684 whole entry): as above

| SMILES | IC50 (CYP2D6) [µM] | IC50 (B-Raf V600E) [µM] | IC50 (CYP2C9) [µM] | IC50 (CYP1A2) [µM] | IC50 (CYP3A4(BFC)) [µM] | IC50 (CYP3A4(BQ)) [µM] | IC50 (CYP2C19) [µM] | IC50 (c-Raf-1) [µM] | IC50 (B-Raf) [µM] | IC50 [1] [µM] | IC50 [2] [µM] | IC50 [3] [µM] | IC50 [4] [µM] | turbidity threshold (L, M, H) 7.4 ([5]; HEPES pH 7.4) | turbidity threshold (L, M, H) 4.5 ([5]; SIF pH 4.5) | turbidity threshold (L, M, H) 6.8 ([5]; SIF pH 6.8) | turbidity threshold (L, M, H) 1.4 ([5]; buffer pH 1.4 (SGF)) |
| --- | --- | --- | --- | --- | --- | --- | --- | --- | --- | --- | --- | --- | --- | --- | --- | --- | --- |
| CCCS(=O)(=O)Nc1ccc(F)c(C(=O)c2c[nH]c3ncc(-c4ccc(S(=O)(=O)C(C)C)cc4)cc23)c1F [P-2223, Propane-1-sulfonic acid (2,4-difluoro-3-{5-[4-(propane-2-sulfonyl)-phenyl]-1H-pyrrolo[2,3-b]pyridine-3-carbonyl}-phenyl)-amide] | > 10 | < 0.01 | > 10 | > 10 | > 10 | > 10 | > 10 | < 0.01 | < 0.01 |  |  |  |  |  |  |  |  |
| O=C(c1c(F)ccc(NS(=O)(=O)c2cccnc2)c1F)c1c[nH]c2nccc(Cl)c12 [P-2074, Pyridine-3-sulfonic acid [3-(4-chloro-1H-pyrrolo[2,3-b]pyridine-3-carbonyl)-2,4-difluoro-phenyl]-amide] |  |  |  |  |  |  |  |  |  | < 5 | > 10 | > 10 | < 10 |  |  |  |  |
| N#Cc1cnc2[nH]cc(C(=O)c3cccc(NS(=O)(=O)c4cccnc4)c3F)c2c1 [P-2086, Pyridine-3-sulfonic acid [3-(5-cyano-1H-pyrrolo[2,3-b]pyridine-3-carbonyl)-2-fluoro-phenyl]-amide] |  |  |  |  |  |  |  |  |  | < 10 | > 10 | > 10 |  | H (high solubility if the threshold concentration is >250 μM) | M (moderate solubility if the threshold concentration is 31.3 μM to 250 μM) | M (moderate solubility if the threshold concentration is 31.3 μM to 250 μM) | M (moderate solubility if the threshold concentration is 31.3 μM to 250 μM) |
| CCCS(=O)(=O)Nc1ccc(F)c(C(=O)c2c[nH]c3ncc(-c4cnc(OCCCN(C)C)nc4)cc23)c1F [P-2203, Propane-1-sulfonic acid (3-{5-[2-(3-dimethylamino-propoxy)-pyrimidin-5-yl]-1H-pyrrolo[2,3-b]pyridine-3-carbonyl}-2,4-difluoro-phenyl)-amide] |  | < 0.01 |  |  |  |  |  |  | < 0.01 | < 1 |  | > 10 |  |  |  |  |  |
